# Results taken from patent US20180071317A1, “USE OF AGENTS THAT ALTER THE PERITUMORAL ENVIRONMENT FOR THE TREATMENT OF CANCER” (SERVICIO ANDALUZ DE SALUD, priority 2011, published 2018).
# Assays:
# [1] = test system: fibroblasts (PHF) co-cultured with tumor cells of human gastric adenocarcinoma (23132/87); assay: Marker expression (IHC) in PHF co-cultured with 23132/87 tumor cells; format: cell-based; conditions: co-culture with 23132/87; SP 1 μM + antagonist 1 μM; 48 h;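 further: cultures grown in fresh plasma from a healthy human donor, values give the percentage of PHF fibroblasts positive for the marker, each experiment run in six replicates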
# Method: All cultures were maintained 48 hours, following which the same cells were included in paraffin blocks for subsequent analysis of the expression of different markers by immunohistochemistry (see Example 1). The primary antibodies used to perform immunohistochemical assays and their concentration are detailed in Example 2. All experiments were carried out sixfold. Analyzed markers in fibroblast cells (stromal cells) were: TGF-α, TGF-β1, TGF-β2, TGF-β3, SPARC, MMP-3, MMP-7, MMP-9, MMP-11, MMP-13 and MMP-14.
# [2] = test system: fibroblasts (PHF) co-cultured with tumor cells of human pancreatic adenocarcinoma (CAPAN-1); assay: Marker expression (IHC) in PHF co-cultured with CAPAN-1 tumor cells; format: cell-based; conditions: co-culture with CAPAN-1; SP 1 μM + antagonist 1 μM; 48 h;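 further: cultures grown in fresh plasma from a healthy human donor, run in six replicates, value is percent of fibroblasts positive for each marker, compared with fibroblasts cultured alone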
# [3] = test system: fibroblasts (PHF) co-cultured with tumor cells of human breast carcinoma (MCF-7); assay: Marker expression (IHC) in PHF co-cultured with MCF-7 tumor cells; format: cell-based; conditions: co-culture with MCF-7; SP 1 μM + antagonist 1 μM; 48 h;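 further: value is the percentage of fibroblasts positive for each marker, with fibroblasts cultured alone as reference, grown in fresh plasma from a healthy donor, six replicates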
# Method: (§1) All cultures were maintained 48 hours, following which the same cells were included in paraffin blocks for subsequent analysis of the expression of different markers by immunohistochemistry (see Example 1). […] All experiments were carried out sixfold. Analyzed markers in fibroblast cells (stromal cells) were: TGF-α, TGF-β1, TGF-β2, TGF-β3, SPARC, MMP-3, MMP-7, MMP-9, MMP-11, MMP-13 and MMP-14.
# [4] = test system: fibroblasts (PHF) co-cultured with tumor cells of human cervix carcinoma (KB); assay: Marker expression (IHC) in PHF co-cultured with KB tumor cells; format: cell-based; conditions: co-culture with KB; SP 1 μM + antagonist 1 μM; 48 h;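 further: percentage of PHF fibroblasts showing expression of each marker, cultured in fresh blood plasma from a healthy human donor, six replicates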
# Method: as §1
# [5] = test system: fibroblasts (PHF) co-cultivated with tumor cell carcinoma of urinary bladder (5637); assay: Marker expression (IHC) in PHF co-cultured with 5637 tumor cells; format: cell-based, human; conditions: co-culture with 5637; SP 1 μM + antagonist 1 μM; 48 h
# Method: as §1
# [6] = test system: fibroblasts of tumors produced by human rhabdomyosarcoma tumor line (A-204); assay: Marker expression (IHC) in fibroblasts of tumor or peritumoral area, mouse model, A-204; format: in vivo; conditions: A-204 tumors in mice, 30 mg/kg/day oral, 7 days
# Method: In vitro tests conducted in Example 5 are now carried out in an experimental model in mice in vivo. […] Subsequently, the expression in fibroblasts tumoral and peritumoral area of molecular markers associated with progression and maintenance of tumors: TGF-α, TGF-β1, TGF-β2, TGF-β3, MMP-7, MMP-11, MMP-14 were analyzed by immunohistochemistry.
# Were injected with 2×10^7 cells tumors (corresponding, in each case to each of the tumor types as specified in Table 9) in 200 of PBS subcutaneously μl. […] Mice were randomized into two groups when the tumors reached a volume of 75 mm^3 One group was treated with non-peptide receptor antagonists NK1 and the other with placebo 200μ1. […] Tumors and samples of non-neoplastic stromal areas remote from the tumor were halved, formalin fixed (4%) and then were included in paraffin blocks for analysis by immunohistochemistry.
# The expression on fibroblast cells obtained in the animal model was analyzed by immunohistochemistry, of the above markers: TGF-α, TGF-β1, TGF-β2, TGF-β3, MMP-7, MMP-1 1, MMP-14MP-14. Tables 32 to 35 depict the type of label used and the average percentage of fibroblasts present in non-tumor areas, tumor and peritumoral (±SD) which were expressing the marker shown in each of the tumor types developed from of the different cell lines used. This process was realized in mice treated with non-peptide antagonists of NK1 receptor and in untreated animals (control).
# [7] = test system: tumors from the tumor cell lines of Table 9; assay: Mean tumor volume in nude mice injected subcutaneously with human tumor cells; conditions: 30 mg/kg/day oral, 7 days
smiles,measurement,setting,value
Cc1cc(F)ccc1[C@H]1CNCCN1C(=O)N(C)[C@H](C)c1cc(C(F)(F)F)cc(C(F)(F)F)c1 [Vestipitant],PHF cells expressing MMP-3,[1],0%
same,PHF cells expressing MMP-7,[1],0%
same,PHF cells expressing MMP-9,[1],0%
same,PHF cells expressing MMP-11,[1],0%
same,PHF cells expressing MMP-13,[1],0%
same,PHF cells expressing MMP-14,[1],0%
same,PHF cells expressing SPARC,[1],0%
same,PHF cells expressing TGF-α,[1],0%
same,PHF cells expressing TGF-β1,[1],0%
same,PHF cells expressing TGF-β2,[1],0%
same,PHF cells expressing TGF-β3,[1],0%
same,PHF cells expressing MMP-3,[2],0%
same,PHF cells expressing MMP-7,[2],0%
same,PHF cells expressing MMP-9,[2],0%
same,PHF cells expressing MMP-11,[2],0%
same,PHF cells expressing MMP-13,[2],0%
same,PHF cells expressing MMP-14,[2],0%
same,PHF cells expressing SPARC,[2],0%
same,PHF cells expressing TGF-α,[2],0%
same,PHF cells expressing TGF-β1,[2],0%
same,PHF cells expressing TGF-β2,[2],0%
same,PHF cells expressing TGF-β3,[2],0%
same,PHF cells expressing MMP-3,[3],0%
same,PHF cells expressing MMP-7,[3],0%
same,PHF cells expressing MMP-9,[3],0%
same,PHF cells expressing MMP-11,[3],0%
same,PHF cells expressing MMP-13,[3],0%
same,PHF cells expressing MMP-14,[3],0%
same,PHF cells expressing SPARC,[3],0%
same,PHF cells expressing TGF-α,[3],0%
same,PHF cells expressing TGF-β1,[3],0%
same,PHF cells expressing TGF-β2,[3],0%
same,PHF cells expressing TGF-β3,[3],0%
same,PHF cells expressing MMP-3,[4],0%
same,PHF cells expressing MMP-7,[4],0%
same,PHF cells expressing MMP-9,[4],0%
same,PHF cells expressing MMP-11,[4],0%
same,PHF cells expressing MMP-13,[4],0%
same,PHF cells expressing MMP-14,[4],0%
same,PHF cells expressing SPARC,[4],0%
same,PHF cells expressing TGF-α,[4],0%
same,PHF cells expressing TGF-β1,[4],0%
same,PHF cells expressing TGF-β2,[4],0%
same,PHF cells expressing TGF-β3,[4],0%
same,PHF cells expressing MMP-3,[5],0%
same,PHF cells expressing MMP-7,[5],0%
same,PHF cells expressing MMP-9,[5],0%
same,PHF cells expressing MMP-11,[5],0%
same,PHF cells expressing MMP-13,[5],0%
same,PHF cells expressing MMP-14,[5],0%
same,PHF cells expressing SPARC,[5],0%
same,PHF cells expressing TGF-α,[5],0%
same,PHF cells expressing TGF-β1,[5],0%
same,PHF cells expressing TGF-β2,[5],0%
same,PHF cells expressing TGF-β3,[5],0%
same,fibroblasts expressing MMP-7,[6],0%
same,fibroblasts expressing MMP-11,[6],0%
same,fibroblasts expressing MMP-14,[6],0%
same,fibroblasts expressing TGF-α,[6],0%
same,fibroblasts expressing TGF-β 1,[6],0%
same,fibroblasts expressing TGF-β 2,[6],0%
same,fibroblasts expressing TGF-β 3,[6],0%
same,Mean tumor volume,[7]; B lymphoblastic leukemia (peripheral human B lymphoblastoid cells) SD1,112 ± 8
same,Mean tumor volume,[7]; Carcinoma of human non-small cell lung COR-L23,111 ± 3
same,Mean tumor volume,[7]; Carcinoma of human non-small cell lung H-1963,101 ± 6
same,Mean tumor volume,[7]; Carcinoma of human non-small cell lung HCC-44,100 ± 4
same,Mean tumor volume,[7]; Carcinoma of human small cell lung H-209,113 ± 5
same,Mean tumor volume,[7]; Carcinoma of human urinary bladder 5637,112 ± 3
same,Mean tumor volume,[7]; Human B lymphoma BC-1,101 ± 9
same,Mean tumor volume,[7]; Human Burkitt lymphoma CA-46,100 ± 19
same,Mean tumor volume,[7]; Human Fibrosarcoma HT-1080,112 ± 4
same,Mean tumor volume,[7]; Human Hodgkin lymphoma KM-H2,99 ± 8
same,Mean tumor volume,[7]; Human Rhabdomyosarcoma A-204,97 ± 9
same,Mean tumor volume,[7]; Human T-cell leukemia/NK YT,101 ± 3
same,Mean tumor volume,[7]; Human T-lymphoma DERL human Hodgkin 7Linfoma KM-H2,90 ± 9
same,Mean tumor volume,[7]; Human breast adenocarcinoma humano MCF-7,78 ± 7
same,Mean tumor volume,[7]; Human breast carcinoma MDA-MB-468,84 ± 7
same,Mean tumor volume,[7]; Human breast carcinoma MT-3,78 ± 8
same,Mean tumor volume,[7]; Human choriocarcinoma AC-1M32,88 ± 8
same,Mean tumor volume,[7]; Human colon carcinoma SW-403,78 ± 2
same,Mean tumor volume,[7]; Human endometrial carcinoma AN3-CA,89 ± 1
same,Mean tumor volume,[7]; Human endometrial stromal sarcoma ESS-1,99 ± 3
same,Mean tumor volume,[7]; Human folicular thyroid carcinoma TT2609-C02,100 ± 4
same,Mean tumor volume,[7]; Human gastric adenocarcinoma 23132/87,63 ± 8
same,Mean tumor volume,[7]; Human glioma GAMG,101 ± 4
same,Mean tumor volume,[7]; Human lung carcinoma A-427,98 ± 10
same,Mean tumor volume,[7]; Human lung carcinoma DV-90,136 ± 10
same,Mean tumor volume,[7]; Human lymphoblastic leukemia T BE-13,111 ± 4
same,Mean tumor volume,[7]; Human malignant fibrous histiocytoma U-2197,95 ± 8
same,Mean tumor volume,[7]; Human melanoma MEL HO,102 ± 4
same,Mean tumor volume,[7]; Human multiple myeloma COLO-677,101 ± 4
same,Mean tumor volume,[7]; Human neuroblastoma KELLY,121 ± 4
same,Mean tumor volume,[7]; Human neuroblastoma bone marrow SKN-BE 2,101 ± 7
same,Mean tumor volume,[7]; Human osteosarcoma CAL-72,104 ± 9
same,Mean tumor volume,[7]; Human ovarian adenocarcinoma EFO-27,63 ± 7
same,Mean tumor volume,[7]; Human ovarian carcinoma COLO-704,78 ± 8
same,Mean tumor volume,[7]; Human pancretic adenocarcinoma CAPAN-1,85 ± 8
same,Mean tumor volume,[7]; Human pancretic adenocarcinoma PA-TU 8902,91 ± 6
same,Mean tumor volume,[7]; Human papillary thyroid carcinoma metastasizing B-CPAP,102 ± 2
same,Mean tumor volume,[7]; Human prostate carcinoma 22RV1,98 ± 2
same,Mean tumor volume,[7]; Human retinoblastoma WERI-Rb-1,112 ± 8
same,Mean tumor volume,[7]; Human thyroid carcinoma 8505C,98 ± 9
same,Mean tumor volume,[7]; Human uterine cervix carcinoma KB,89 ± 1
same,Mean tumor volume,"[7]; Melanoma humano, metástasis en ganglio linfático COLO 858",110 ± 4
same,Mean tumor volume,[7]; Sarcoma human Edwing MHH-ES-1,115 ± 3
same,Mean tumor volume,[7]; Transitional Carcinoma of human urinary bladder RT-4,120 ± 3
